According to ChEMBL document CHEMBL5113376, “Antimalarial application of quinones: A recent update” (Eur J Med Chem, 2021):
pIC50: −log10 of the molar value. In brackets after ≈: the same amount, converted by molar mass. One block for each molecule: values may come before it.

Legend:
Plasmodium falciparum [1] = experiment: Antimalarial activity against Plasmodium falciparum D10; assay type: functional, organism-based
Plasmodium falciparum [2] = experiment: Antimalarial activity against Plasmodium falciparum W2; assay type: functional, organism-based
[3] = Cytotoxicity against HMEC-1 cells; assay type: toxicity, cell-based; settings: human
Plasmodium falciparum [4] = experiment: Antimalarial activity against chloroquine sensitive Plasmodium falciparum RKL-2; assay type: functional, organism-based
Plasmodium falciparum [5] = experiment: Antimalarial activity against chloroquine resistant Plasmodium falciparum RKL-9; assay type: functional, organism-based
Plasmodium falciparum [6] = experiment: Antiplasmodial activity against chloroquine sensitive Plasmodium falciparum F-32 Tanzania incubated for 48 hrs; assay type: functional, organism-based
Plasmodium falciparum [7] = experiment: Antimalarial activity against Plasmodium falciparum K1 by 96-well microtitre plate method based scintillation counting analysis; assay type: functional, organism-based
Plasmodium falciparum [8] = experiment: Antimalarial activity against Plasmodium falciparum 3D7; assay type: functional, organism-based
Plasmodium falciparum [9] = experiment: Antimalarial activity against Plasmodium falciparum 3D7 assessed as inhibition of malarial growth by measuring dead rings/schizonts at 50 ug/ml relative to control; assay type: functional
Plasmodium falciparum [10] = experiment: Antimalarial activity against Plasmodium falciparum RKL-2; assay type: functional, organism-based
Plasmodium falciparum [11] = experiment: Antimalarial activity against Plasmodium falciparum RKL-2 assessed as inhibition of malarial growth by measuring dead rings/schizonts at 50 ug/ml relative to control; assay type: functional
Plasmodium falciparum [12] = experiment: Antiplasmodial activity against Chloroquine resistant Plasmodium falciparum FcB1 incubated for 48 hrs by SYBR green I based fluorescence assay; assay type: functional, organism-based; settings: FcB1, 48 h
Plasmodium berghei [13] = experiment: In vivo plasmodial activity against Plasmodium berghei ANKA infected in Swiss mouse assessed as survival rate at 50 mg/kg, ip for 4 days after infection relative to control; assay type: functional; settings: time 4 day
Plasmodium falciparum [14] = experiment: Antimalarial activity against Plasmodium falciparum by 96-well microtitre plate method based scintillation counting analysis; assay type: functional, organism-based
Plasmodium falciparum [15] = experiment: Antimalarial activity against Plasmodium falciparum; assay type: functional, organism-based
Plasmodium falciparum [16] = experiment: Antiplasmodial activity against Chloroquine resistant plasmodium falciparum FCR-3; assay type: functional, organism-based
[17] = Selectivity index, ratio of IC50 for human MDA-MB-231 cells to IC50 for Chloroquine resistant Plasmodium falciparum FCR-3; assay type: toxicity; settings: read-out: Ratio IC50
HEK293 = experiment: Cytotoxicity against HEK293 cells incubated for 48 hrs by MTT assay; assay type: functional; settings: Homo sapiens
Plasmodium falciparum [18] = experiment: Antimalarial activity against Plasmodium falciparum 3D7 infected in human erythrocytes; assay type: functional, organism-based; settings: 3D7, Erythrocyte
Plasmodium falciparum [19] = experiment: Antimalarial activity against Plasmodium falciparum W2 by 96-well microtitre plate method based scintillation counting analysis; assay type: functional, organism-based
Plasmodium falciparum [20] = experiment: Antimalarial activity against Plasmodium falciparum 3D7 measured after 24 hrs by hypoxanthine based scintillation counting analysis; assay type: functional; settings: read-out: ED50 (the source's name)
[21] = Cytotoxicity against African green monkey Vero cells; assay type: toxicity, cell-based; settings: chlorocebus sabaeus
Plasmodium berghei [22] = experiment: In vivo antiplasmodial activity against Plasmodium berghei ANKA infected in CD-1 mouse assessed as decrease in parasitaemia at 50 mg/kg, ip measured after 7 days relative to control; assay type: functional; set-up: scale not given: the % may be the effect or the level left; settings: time 7 day
Plasmodium berghei [23] = experiment: In vivo antiplasmodial activity against Plasmodium berghei ANKA infected in CD-1 mouse assessed as decrease in parasitaemia at 50 mg/kg, ip measured after 4 days relative to control; assay type: functional; set-up: scale not given: the % may be the effect or the level left; settings: time 4 day
Plasmodium falciparum [24] = experiment: Antimalarial activity against Plasmodium falciparum TM91C235; assay type: functional, organism-based
Plasmodium berghei [25] = experiment: Antimalarial activity against Plasmodium berghei; assay type: functional, organism-based
Plasmodium falciparum [26] = experiment: Antimalarial activity against Plasmodium falciparum D6; assay type: functional, organism-based
Plasmodium falciparum [27] = experiment: Antimalarial activity against Plasmodium falciparum Dd2 by 96-well microtitre plate method based scintillation counting analysis; assay type: functional, organism-based
Plasmodium falciparum [28] = experiment: Antimalarial activity against Plasmodium falciparum Dd2 by H-hypoxanthine incorporation based assay; assay type: functional, organism-based
Plasmodium falciparum [29] = experiment: Antimalarial activity against Plasmodium falciparum 3D7 by H-hypoxanthine incorporation based assay; assay type: functional, organism-based
Plasmodium falciparum [30] = experiment: Antimalarial activity against multi-drug resistant Plasmodium falciparum K1; assay type: functional, organism-based
A549 = experiment: Cytotoxicity against human A549 cells incubated for 24 hrs by MTT assay; assay type: functional
Plasmodium falciparum [31] = experiment: Antimalarial activity against Plasmodium falciparum W2 incubated for 24 hrs; assay type: functional, organism-based; settings: Plasmodium falciparum, W2, 24 h
HepG2 = experiment: Cytotoxicity against human HepG2 cells incubated for 24 hrs by MTT assay; assay type: functional

- pIC50 (Plasmodium falciparum [1]): 5.91
- pIC50 (Plasmodium falciparum [2]): 5.92
Structure (SMILES): COC1=C(Cc2ccc(OC)cc2)C(=O)C2=C(NCCS2(=O)=O)C1=O
- pIC50 [3]: 4.75

Structure (SMILES): CCCNCc1cc(NC2=C(O)C(=O)c3ccccc3C2=O)ccc1O
- IC50 (Plasmodium falciparum [4]): 0.453 µg/mL (≈ 1.29 µM)
- IC50 (Plasmodium falciparum [5]): 2.92 µg/mL (≈ 8.29 µM)

- pIC50 (Plasmodium falciparum [6]): 6.10
Structure (SMILES): COc1ccc(-n2cc(COC3=CC(=O)c4ccccc4C3=O)nn2)cc1F

- pIC50 (Plasmodium falciparum [7]): 6.64
Structure (SMILES): COc1cc(O)c(-c2c(C)cc(O)c3c2C(=O)c2ccc([C@H]4c5cccc(O)c5C(=O)c5c(O)cc(C)c(-c6c(O)cc(OC)c(C(C)=O)c6O)c54)c(O)c2C3=O)c(O)c1C(C)=O (stereo in doubt; 12)

- IC50 (Plasmodium falciparum [8]): 0.411 µg/mL (≈ 1.18 µM)
- IC50 (Plasmodium falciparum [10]): 1.17 µg/mL (≈ 3.35 µM)
Structure (SMILES): O=C1C(O)=C(C(c2ccccc2O)N2CCCC2)C(=O)c2ccccc21 (centres undefined)
- inhibition at 50 µg/mL (Plasmodium falciparum [9]): 72.5%
- inhibition at 50 µg/mL (Plasmodium falciparum [11]): 70%

Structure (SMILES): COc1ccc2c(c1)C(=O)C(=O)C1=C2OC(C)C1(C)C (centres undefined)
- pIC50 (Plasmodium falciparum [12]): 6.07
- Activity (Plasmodium berghei [13]): 100%

- IC50 (Plasmodium falciparum [14]): 3.29 µg/mL (≈ 8.79 µM)
Structure (SMILES): Cc1cc(O)c2c(c1)C(=O)C(c1c(C)cc3c(c1O)C(=O)C=CC3=O)=CC2=O [DIOSPYRIN]

- pIC50 (Plasmodium falciparum [15]): 7.30
Structure (SMILES): CNCCCCNCCCNC(=O)c1c(C)oc2c1C(=O)c1ccccc1C2=O

Structure (SMILES): O=C1C(O)=C(Nc2ccc(O)c(CN3CCOCC3)c2)C(=O)c2ccccc21
- IC50 (Plasmodium falciparum [4]): 0.391 µg/mL (≈ 1.03 µM)
- IC50 (Plasmodium falciparum [5]): 0.993 µg/mL (≈ 2.61 µM)

Structure (SMILES): COC(=O)/C(=C\CC/C(C)=C/CC/C(C)=C/CC1=CC(=O)C=C(C)C1=O)CCC=C(C)C
- pIC50 (Plasmodium falciparum [16]): 5.09

- pIC50 (Plasmodium falciparum [6]): 5.80
Structure (SMILES): O=C(Cn1cc(COC2=CC(=O)c3ccccc3C2=O)nn1)c1ccc(-c2ccccc2)cc1

- pIC50 (Plasmodium falciparum [1]): 5.72
- pIC50 (Plasmodium falciparum [2]): 5.79
Structure (SMILES): COC1=C(Cc2ccc(Cl)cc2)C(=O)C2=C(NCCS2(=O)=O)C1=O
- pIC50 [3]: 5.07

Structure (SMILES): CC(C)=CCC/C(=C/CC/C(C)=C/CCc1ccc2c(c1)C(=O)C=C(C)C2=O)C(=O)O
- selectivity ratio [17]: 443
- pIC50 (Plasmodium falciparum [16]): 5.27

- pIC50 (Plasmodium falciparum [18]): 6.35
Structure (SMILES): O=C1C(O)=C(Cc2ccccc2)C(=O)c2ccccc21
- CC50 (HEK293): 54600 nM

- IC50 (Plasmodium falciparum [19]): 7.53 µg/mL (≈ 31.3 µM)
Structure (SMILES): C=C(C)C1CC2=C(O1)C(=O)c1ccccc1C2=O (stereo not drawn) [DEHYDROISO-ALPHA-LAPACHONE]

- EC50 (Plasmodium falciparum [20]): 0.537 µg/mL (≈ 1.02 µM)
Structure (SMILES): Cc1cc(O)c2c(c1)C(O)(c1ccc3c(c1O)C(=O)c1c(O)cc(C)c(O)c1C3=O)c1cccc(O)c1C2=O (centres undefined)

Structure (SMILES): CCN(CC)CCCC(C)Nc1ccnc2cc(Cl)ccc12 (centres undefined) [CHLOROQUINE]
- CC50 [21]: 227000 nM
- Activity (Plasmodium berghei [22]): 76.8%
- Activity (Plasmodium berghei [23]): 86.3%

- pIC50 (Plasmodium falciparum [24]): 7.08
- pIC50 (Plasmodium berghei [25]): 7.77
- pIC50 (Plasmodium falciparum [2]): 7.19
- pIC50 (Plasmodium falciparum [26]): 8.30
Structure (SMILES): C[C@@H](CCCCCC(F)(F)F)CC1=C(O)C(=O)c2ccccc2C1=O

- IC50 (Plasmodium falciparum [27]): 1.57 µg/mL (≈ 2.9 µM)
Structure (SMILES): Cc1cc2c(c(C3=C(O)C(=O)c4c(O)ccc(O)c4C3=O)c1)C(=O)c1c(O)c3c(c(O)c1C2=O)C=CC(C)(C)O3

- pIC50 (Plasmodium falciparum [28]): 7.16
- pIC50 (Plasmodium falciparum [29]): 7.17
Structure (SMILES): CC1=C(Cc2ccncc2)C(=O)c2ccccc2C1=O

Structure (SMILES): CSC1=CC2=C(C(=O)c3ccc([C@H]4C[C@@H](O)[C@H](O)[C@@H](C)O4)c(O)c3C2=O)[C@@]2(O)C(=O)C[C@](C)(O)C[C@@]12O
- IC50 (Plasmodium falciparum [30]): 0.0534 µg/mL (≈ 0.1 µM)

- pIC50 (Plasmodium falciparum [31]): 4.69
Structure (SMILES): CC1(C)CCC2=C(O1)c1ccccc1C(=O)C2=O [LAPACHONE]
- CC50 (A549): 2090 nM
- CC50 (HepG2): 2090 nM

- pIC50 (Plasmodium falciparum [7]; Plasmodium falciparum, K1): 6.85
Structure (SMILES): COc1cc(O)c(-c2c(C)cc(O)c3c2C(=O)c2ccc([C@H]4c5cccc(O)c5C(=O)c5c(O)cc(C)c(-c6c(O)cc(OC)c(C(C)=O)c6O)c54)c(O)c2C3=O)c(O)c1C(C)=O (stereo in doubt; 11)

Structure (SMILES): COc1ccc2c(c1)C1=C(C(=O)C2=O)C(C)(C)C(C)O1 (centres undefined)
- pIC50 (Plasmodium falciparum [12]): 6.24
